Source: patent US12084451B2, “Compositions and methods for reducing tactile dysfunction, anxiety, and social impairment” (President and Fellows of Harvard College, priority 2018, dated 2024)

How the values were obtained:
Format in all cases: cell-based
hGABAA α1β3γ2 [1] = target: T1, hGABAA α1β3γ2 (Homo sapiens, UniProt P14867+P18507+P28472); experiment: hGABAA IonFlux HT PAM Assay, α1β3γ2; conditions: for Mean Maximal Effect (% of Control): normalized to baseline peak current induced by EC20 GABA (1 μM) for 2 seconds; for EC50: read-out: Estimated EC50
Excerpt: (§1) Ligand-gated ion channels targeted were hGABAA α1β3γ2 and hGABAA α2β3γ2.
(§2) Electrophysiological assays conducted to profile nine (9) compounds for activities on the on channel targets listed above for Positive Allosteric Modulator (PAM) activities using the IonFlux HT electrophysiological platform.
The parameters measured are described in the Data Analysis section.
(§3) All wells included a final DMSO concentration of 0.33% including all control wells.
(§4) All recordings were obtained from a holding potential of −60 mV. The compound addition sequence that was used for all additions was the same for all assays. […] The process was repeated with the next ascending concentration of test compound (FIG. 1).
(§5) All data were first exported to an Excel compatible data file and then analyzed using Graph Pad Prism software.

hGABAA α2β3γ2 = hGABAA α2β3γ2 (Homo sapiens, UniProt P18507+P28472+P47869); experiment: hGABAA IonFlux HT PAM Assay, α2β3γ2; conditions: for Mean Maximal Effect (% of Control): normalized to baseline peak current induced by EC20 GABA (0.8 μM) for 2 seconds; for EC50: read-out: Estimated EC50
Excerpt: as §1, §2
The parameters measured are described in the Data Analysis section. […] Open circles represent data that has been excluded from the curve fitting. Where no curve fit was possible, n/c (not calculable) is listed.
as §3, §4, §5

hGABAA α1β3γ2 [2] = target: T1, hGABAA α1β3γ2; experiment: hGABAA α1β3γ2 IonFlux HT Agonist Assay; parameters: activation of hGABAA α1β3γ2 ion channel currents / activation: dose or concentration left out as unconfirmed; conditions: for EC50: agonist activation of channel currents, read-out: Estimated EC50
Procedure: Ligand-gated ion channel targets were hGABAA α2β3γ2 and hGABAA α1β3γ2. Electrophysiological assays conducted to profile two compounds for agonist activities on hGABAA α2β3γ2 and seven compounds for agonist activities on hGABAA α1β3γ2 using the IonFlux HT electrophysiological platform.
The parameters measured are described in the Data Analysis section. […] Note: The test compounds was applied over two (2) ‘experimental patterns’ in increasing concentrations.
The supplied compound was prepared in DMSO to concentrations that were 300× the final assay concentrations. Aliquots were taken out and diluted 300× into external buffer to give the final assay concentration. At wells included a final DMSO concentration of 0.33% including all control wets.
All recordings were obtained from a holding potential of −60 mV. The compound addition sequence that was used for all additions was the same for all assays. […] Each test concentration of compound was applied for 2 seconds followed by 60 seconds wash. The process was repeated with the next ascending concentration of test compound. The test compounds were applied over two (2) ‘experimental patterns’ in increasing concentrations (FIG. 11).
AM data were first exported to an Excel compatible data file and then analyzed using Graph Pad Prism software.

[3] = read-out: Normalized Percentage Activation Mean

T1 sequence (P14867 28-456): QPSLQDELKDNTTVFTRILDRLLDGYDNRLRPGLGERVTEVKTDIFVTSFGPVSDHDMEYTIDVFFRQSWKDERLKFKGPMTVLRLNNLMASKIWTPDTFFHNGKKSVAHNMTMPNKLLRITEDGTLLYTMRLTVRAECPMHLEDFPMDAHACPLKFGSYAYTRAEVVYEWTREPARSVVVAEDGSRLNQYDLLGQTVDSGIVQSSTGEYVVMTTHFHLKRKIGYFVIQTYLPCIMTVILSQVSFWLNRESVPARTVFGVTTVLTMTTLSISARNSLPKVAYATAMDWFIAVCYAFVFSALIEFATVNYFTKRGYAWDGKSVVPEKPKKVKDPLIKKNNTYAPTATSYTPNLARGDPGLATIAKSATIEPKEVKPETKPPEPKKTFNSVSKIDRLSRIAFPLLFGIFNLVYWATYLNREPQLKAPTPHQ
T1 sequence (P28472 26-473): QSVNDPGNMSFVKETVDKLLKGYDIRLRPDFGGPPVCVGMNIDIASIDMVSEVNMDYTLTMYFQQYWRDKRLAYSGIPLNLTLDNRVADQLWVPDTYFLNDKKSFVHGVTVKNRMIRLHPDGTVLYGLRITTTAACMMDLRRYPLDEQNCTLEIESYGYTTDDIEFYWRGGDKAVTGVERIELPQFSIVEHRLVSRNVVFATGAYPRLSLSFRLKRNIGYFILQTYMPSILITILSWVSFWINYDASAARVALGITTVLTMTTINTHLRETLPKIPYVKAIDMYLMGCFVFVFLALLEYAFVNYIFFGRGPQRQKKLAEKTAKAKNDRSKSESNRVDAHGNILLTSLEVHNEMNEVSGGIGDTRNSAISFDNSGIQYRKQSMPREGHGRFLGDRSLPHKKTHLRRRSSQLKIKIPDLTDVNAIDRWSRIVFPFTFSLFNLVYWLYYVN
T1 sequence (P18507 40-475): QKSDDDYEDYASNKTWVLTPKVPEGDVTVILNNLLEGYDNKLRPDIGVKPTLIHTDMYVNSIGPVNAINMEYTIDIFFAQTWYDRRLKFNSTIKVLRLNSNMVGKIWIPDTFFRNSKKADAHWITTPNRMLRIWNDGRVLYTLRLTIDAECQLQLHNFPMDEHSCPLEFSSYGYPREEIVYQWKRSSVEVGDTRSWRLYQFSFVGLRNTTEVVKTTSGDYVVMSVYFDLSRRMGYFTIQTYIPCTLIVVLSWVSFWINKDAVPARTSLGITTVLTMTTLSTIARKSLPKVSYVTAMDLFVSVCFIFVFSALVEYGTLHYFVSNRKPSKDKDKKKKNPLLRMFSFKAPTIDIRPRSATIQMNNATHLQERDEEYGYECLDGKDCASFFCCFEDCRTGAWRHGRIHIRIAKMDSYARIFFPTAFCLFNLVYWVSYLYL
Chain of hGABAA α2β3γ2 (P47869 29-451): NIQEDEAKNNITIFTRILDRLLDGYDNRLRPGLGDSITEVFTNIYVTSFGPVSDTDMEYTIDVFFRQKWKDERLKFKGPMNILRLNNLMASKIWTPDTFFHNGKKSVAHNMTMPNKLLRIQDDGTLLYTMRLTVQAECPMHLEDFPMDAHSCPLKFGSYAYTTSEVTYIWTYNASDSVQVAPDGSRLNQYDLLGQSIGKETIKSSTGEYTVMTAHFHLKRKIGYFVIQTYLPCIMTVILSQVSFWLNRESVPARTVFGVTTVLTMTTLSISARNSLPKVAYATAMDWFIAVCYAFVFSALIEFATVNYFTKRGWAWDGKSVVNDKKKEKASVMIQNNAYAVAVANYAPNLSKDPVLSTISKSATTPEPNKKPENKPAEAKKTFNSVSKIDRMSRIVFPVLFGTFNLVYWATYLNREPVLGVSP
Chain of hGABAA α2β3γ2 (P28472 26-473): as the sequence (P28472 26-473) above
Chain of hGABAA α2β3γ2 (P18507 40-475): as the sequence (P18507 40-475) above

Row | Structure (SMILES) | Mean Maximal Effect (% of Control) (hGABAA α1β3γ2 [1]) | Mean Maximal Effect (% of Control) (hGABAA α2β3γ2) | EC50 (hGABAA α1β3γ2 [1]) [µM] | EC50 (hGABAA α2β3γ2) [µM] | activation of hGABAA α1β3γ2 ion channel currents (hGABAA α1β3γ2 [2]) | EC50 (hGABAA α1β3γ2 [2]) [µM] | activation at 0.3 µM (hGABAA α1β3γ2 [2]; [3]) [%] | activation at 1 µM (hGABAA α1β3γ2 [2]; [3]) [%] | activation at 3 µM (hGABAA α1β3γ2 [2]; [3]) [%] | activation at 10 µM (hGABAA α1β3γ2 [2]; [3]) [%] | activation at 30 µM (hGABAA α1β3γ2 [2]; [3]) [%] | activation at 100 µM (hGABAA α1β3γ2 [2]; [3]) [%] | activation at 300 µM (hGABAA α1β3γ2 [2]; [3]) [%] | further results
1 | Cc1ccc(-c2nc3ccc(C)cn3c2CC(=O)N(C)C)cc1 [Zolpidem] | 331 % of Control | 304 % of Control | – | – | – | – | – | – | – | – | – | – | – | (%) Control mean (hGABAA α1β3γ2 [1]; 0.001 μM + EC20 GABA): 110.7 % Control; (%) Control n1 (hGABAA α1β3γ2 [1]; 0.001 μM + EC20 GABA): 116.2 % Control; (%) Control n2 (hGABAA α1β3γ2 [1]; 0.001 μM + EC20 GABA): 105.2 % Control; (%) Control mean (hGABAA α1β3γ2 [1]; 0.01 μM + EC20 GABA): 141.9 % Control; (%) Control n1 (hGABAA α1β3γ2 [1]; 0.01 μM + EC20 GABA): 144.3 % Control; (%) Control n2 (hGABAA α1β3γ2 [1]; 0.01 μM + EC20 GABA): 139.4 % Control; (%) Control mean (hGABAA α1β3γ2 [1]; 0.1 μM + EC20 GABA): 267.3 % Control; (%) Control n1 (hGABAA α1β3γ2 [1]; 0.1 μM + EC20 GABA): 278.5 % Control; (%) Control n2 (hGABAA α1β3γ2 [1]; 0.1 μM + EC20 GABA): 256.1 % Control; (%) Control mean (hGABAA α1β3γ2 [1]; 1 μM + EC20 GABA): 292.4 % Control; (%) Control n1 (hGABAA α1β3γ2 [1]; 1 μM + EC20 GABA): 294.8 % Control; (%) Control n2 (hGABAA α1β3γ2 [1]; 1 μM + EC20 GABA): 290.1 % Control; (%) Control mean (hGABAA α1β3γ2 [1]; 10 μM + EC20 GABA): 318.1 % Control; (%) Control n1 (hGABAA α1β3γ2 [1]; 10 μM + EC20 GABA): 326.1 % Control; (%) Control n2 (hGABAA α1β3γ2 [1]; 10 μM + EC20 GABA): 310.1 % Control; (%) Control mean (hGABAA α1β3γ2 [1]; 100 μM + EC20 GABA): 330.6 % Control; (%) Control n1 (hGABAA α1β3γ2 [1]; 100 μM + EC20 GABA): 349.7 % Control; (%) Control n2 (hGABAA α1β3γ2 [1]; 100 μM + EC20 GABA): 311.6 % Control
2 | CCN(CCNC)C(=O)CC1c2nccnc2C(=O)N1c1ccc(Cl)cn1 (stereo not drawn) [Compound 5] | 136 % of Control | 126 % of Control | 3.16 | 8.7 | did not activate | > 1000 | 2.54 | 2.02 | 2.28 | 2.45 | 3.08 | 3.75 | 2.7 | activation at 10000 µM (hGABAA α1β3γ2 [2]; [3]): 2.38%
3 | CNCCN(C)C(=O)Cc1c(-c2ccc(C)cc2)nc2ccc(C)cn12 [Compound 1] | 282 % of Control | 181 % of Control | 0.654 | 3 | did not activate | > 1000 | 1.64 | 1.39 | 2.34 | 6.52 | 4.78 | 6.97 | 7.15 | activation (hGABAA α1β3γ2 [2]; [3]): 4.98%
